According to publication PMC12347391, “Sulforaphane-Rich Broccoli Sprout Extract Promotes Hair Regrowth in an Androgenetic Alopecia Mouse Model via Enhanced Dihydrotestosterone Metabolism” (International Journal of Molecular Sciences, 2025):

How the values were obtained:
[1] = test system: testosterone-induced AGA mouse model; assay: In vivo hair regrowth efficacy; parameters: species or system C57BL/6J mice; details: finasteride 1 mg/kg oral; for hair regrowth (coverage of the telogen area) / telogen-to-anagen conversion (telogen area transitioning): day 6; for hair regrowth (coverage of the telogen area) / telogen-to-anagen conversion (telogen area transitioning) / anagen area / hair regrowth / increase in hair follicle length compared to the untreated group / increase in hair weight compared to the untreated group: minoxidil 1% topical; for telogen-to-anagen conversion (telogen area transitioning): once daily
Protocol: On day 6, dorsal hair was removed from all mice. All mice were anesthetized using 3% isoflurane in 100% oxygen at a flow rate of 0.8 L/min, and the suppression of deep pedal reflexes was confirmed in the mice. Then, the desired dorsal region was shaved using electric clippers, followed by the application of rosin wax. After 2 min, the rosin wax was removed with the help of adhesive tape. The application of rosin wax was repeated one more time to completely remove the few remaining hairs.
Testosterone-treated mice were then randomly assigned to six groups (n = 6 per group). The first group served as the negative control and only received the vehicle.
Hair regrowth was visually monitored and photographed on days 0, 3, 6, 9, 12, and 15. Regrowth progression was quantitatively assessed using the software ImageJ (version 1.54p; National Institutes of Health, Bethesda, MD, USA) by measuring the areas corresponding to telogen-phase skin (pink), anagen transition zones (black), and fully covered hair regions. On day 15, the regrown dorsal hair was trimmed and weighed using an analytical balance to assess total hair mass. To evaluate hair follicle length, mice were first anesthetized using 3% isoflurane in 100% oxygen at a flow rate of 0.8 L/min to minimize movement and distress. The dorsal skin area was then cleaned with 70% ethanol to prevent contamination. Using sterile fine-tipped forceps, approximately 5–20 hairs were grasped close to the skin surface and swiftly plucked in the direction of hair growth to minimize follicular damage. Only hair shafts with intact follicular bulbs were selected for analysis. This procedure was repeated at three distinct dorsal sites per animal to obtain a representative sampling of hair regrowth. Finally, the lengths of selected hair follicles were measured microscopically.

DHT = assay: Plasma DHT level (ELISA); assay type: in vivo, C57BL/6J mice; details: AGA mice; minoxidil 1% topical, finasteride 1 mg/kg oral
Protocol: Blood samples were collected in heparinized tubes and centrifuged at 13,000× g for 5 min at 4 °C to isolate plasma. The plasma was stored at −80 °C until analysis for testosterone and DHT concentrations.
Plasma samples collected after the final dose of once-daily treatments were used to quantify serum testosterone and DHT levels using commercial ELISA kits: the Mouse Testosterone ELISA Kit and Mouse DHT ELISA Kit (LifeSpan BioSciences, Inc., Seattle, WA, USA). All assays were conducted following the manufacturer’s protocols.

Akr1c21 = assay: Western blot of liver tissue; assay type: in vivo, C57BL/6J mice; details: 15 days post-treatment, minoxidil 1% topical, finasteride 1 mg/kg oral
Protocol: (§1) To assess protein expression levels in skin and liver tissues, samples were lysed using M-PER^TM Mammalian Protein Extraction Reagent (Thermo Fisher Scientific) supplemented with a 1× working concentration of Xpert Protease Inhibitor Cocktail Solution (GenDEPOT, Barker, TX, USA), which included 50 μM PMSF, 10 μM Pepstatin A, 20 μM Leupeptin, 100 μM Benzamidine, and 50 μM Bestatin. The lysates were incubated on ice for 30 min and centrifuged at 12,000× g for 10 min at 4 °C to remove debris. The supernatants were collected, and total protein concentrations were determined using the Pierce^TM BCA Protein Assay Kit (Thermo Fisher Scientific).
(§2) Equal amounts of protein (20–30 μg) were loaded onto 10% SDS–polyacrylamide gels and electrophoresed using a Bio-Rad Mini-PROTEAN Tetra System with the Tris–Glycine–SDS running buffer. A pre-stained molecular weight marker (Precision Plus Protein^TM Dual Color Standards, Bio-Rad) was used as a reference. Proteins were then transferred to PVDF membranes (Immobilon®-P, Millipore, Burlington, MA, USA) using the wet transfer method with the Tris–Glycine buffer containing 20% methanol at 0.2 A for 120 min at 4 °C.
(§3) Membranes were blocked with 5% skim milk in TBST buffer (20 mM Tris–HCl, 150 mM NaCl, 0.2% Tween 20, pH 7.4) for 1 h at room temperature and incubated overnight at 4 °C with one of the following primary antibodies diluted at 1:1000: anti-HSP90 (Santa Cruz Biotechnology, sc-13119, Dallas, TX, USA), anti-β-catenin (Cell Signaling Technology, #8480S, Danvers, MA, USA), anti-Lef-1 (Cell Signaling Technology, #2230S, Danvers, MA, USA), anti-Akr1c21 (Invitrogen, PA5-36572, Carlsbad, CA, USA), or anti-Dhrs9 (MyBioSource, MBS9125625, San Diego, CA, USA). Each antibody was applied to separate membranes to avoid cross-reactivity and ensure target specificity.
(§4) After primary antibody incubation, membranes were washed four times for 10 min each with TBST at 50 rpm on a shaker, followed by incubation with HRP-conjugated secondary antibodies (Thermo Fisher Scientific) diluted 1:3000 for 1 h at room temperature. The membranes were then washed three times for 5 min each with TBST under the same conditions. Protein bands were visualized using the enhanced chemiluminescence (ECL) reagent (Bio-Rad) and imaged using the iBright^TM CL1500 Imaging System (Thermo Fisher Scientific). Densitometric analysis was performed using the software ImageJ (NIH), and band intensities were normalized to HSP90 expression to ensure consistent protein quantification across all samples.

Dhrs9 = assay: Western blot of liver tissue; assay type: in vivo, C57BL/6J mice; details: 15 days post-treatment, minoxidil 1% topical, finasteride 1 mg/kg oral
Protocol: as §1, §2, §3, §4

Lef-1 = assay: Western blot of dorsal skin; assay type: in vivo, C57BL/6J mice; details: 15 days post-treatment; minoxidil 1% topical, finasteride 1 mg/kg oral; neither significant
Protocol: as §1, §2, §3, §4

β-catenin = assay: Western blot of dorsal skin; assay type: in vivo, C57BL/6J mice; details: 15 days post-treatment; minoxidil 1% topical, finasteride 1 mg/kg oral
Protocol: as §1, §2, §3, §4

liver tissue = assay: Safety observation and liver H&E histology after 15-day treatment; assay type: in vivo, C57BL/6J mice; details: mice, oral BSE or finasteride
HDP cells [2] = assay: In vitro cell proliferation assay (WST-1); assay type: cell-based, human
HDP cells [3] = assay: In vitro scratch wound recovery assay; assay type: cell-based, human
Protocol: No. BA-045855; Sartorius AG, […], Germany). […] Sartorius AG), following the manufacturer's instructions. Detached cells were removed by washing twice with PBS (pH 7.4). […] All treatments were performed in triplicate, including a vehicle control. […] Wound closure was quantified using the Incucyte® Scratch Wound Analysis Software Module, which calculates relative wound density (%) by comparing cell density within the wound area to that of the surrounding monolayer, providing an objective measure of cell migration and proliferation over time.

HaCaT keratinocytes = assay: In vitro cell proliferation assay (WST-1)
[4] = test system: CCD-986sk dermal fibroblasts; assay: In vitro cell proliferation assay (WST-1)

Structure (SMILES)	hair regrowth (coverage of the telogen area) [1] [%]	telogen-to-anagen conversion (telogen area transitioning) [1] [%]	anagen area ([1]; day 9) [%]	hair regrowth ([1]; day 9) [%]	hair regrowth ([1]; day 15) [%]	increase in hair follicle length compared to the untreated group ([1]; day 15) [fold]	increase in hair weight compared to the untreated group ([1]; day 15) [%]	reduction of plasma DHT compared to the untreated control (DHT)	hepatic Akr1c21 protein expression (Akr1c21)	hepatic Dhrs9 protein expression (Dhrs9)	Lef-1 expression in dorsal skin (Lef-1)	β-catenin expression in dorsal skin (β-catenin)	further results
CC(C)(C)NC(=O)[C@H]1CC[C@H]2[C@@H]3CC[C@H]4NC(=O)C=C[C@]4(C)[C@H]3CC[C@]12C [finasteride]	7.76	85.8	93.1	54.2	99.0	3.00	165	2.38 fold	markedly upregulated	markedly upregulated	no such trend	significantly restored	telogen area ([1]; day 9): 6.94%; physical abnormalities during treatment (liver tissue): no physical abnormalities
Nc1cc(N2CCCCC2)nc(N)[n+]1[O-] [minoxidil]	0.7	65.0	69.8	4.79	95.0	2.24	82.5	no detectable effect	no significant effect	no significant effect	positive trend	significantly restored	concentration above which proliferation markedly declined (HDP cells [2]): above 10 µg/mL; scratch wound closure (HDP cells [3]; 0.1 µg/mL, 16 h): 68.8%; scratch wound closure (HDP cells [3]; 0.1 µg/mL, 20 h): 77.7%; scratch wound closure (HDP cells [3]; 0.1 µg/mL, 24 h): 94.7%; scratch wound closure (HDP cells [3]; 1 µg/mL, 16 h): 49.2%; scratch wound closure (HDP cells [3]; 25 µg/mL, 16 h): 29.2%; concentration above which cytotoxic effects (decreased cell viability) were seen (HaCaT keratinocytes): above 10 µg/mL; concentration at which proliferation decreased (dose-dependent cytotoxicity) [4]: ≥ 10000 ng/mL; increase in cell proliferation ([4]; 0.5 µg/mL): 184%; increase in cell proliferation ([4]; 1 µg/mL): 173%; proliferation at lower concentrations ([4]; 0.01–0.1 µg/mL): significantly enhanced proliferation
